# Results as given in patent US10413505B1, “Pharmaceutical compositions and methods of using the same” (priority 2017, dated 2019).
# Where a name gives a salt, the structure may show the parent alone. Read-outs that look alike come from different tables or passages of the source.
# Tested on: subjects undergoing diagnostic procedures and surgeries on or through the mucous membranes of the nasal cavities
# Excerpt: Example 8 was a randomized, prospective, double-blind, multicenter, single-dose, placebo and dose-controlled, parallel-group study to evaluate the safety of the 4% and 8% cocaine hydrochloride pharmaceutical compositions as described in Example 4 used as a local anesthetic for diagnostic procedures and surgeries on or through the mucous membranes of the nasal cavities (e.g., nasal/sinus endoscopy, sinusotomy, fracture nasal turbinate(s), lysis intranasal synechia, insertion of nasal septal prosthesis, intranasal biopsy, excision of nasal polyps, excision turbinate(s), removal of an intranasal foreign body, septoplasty, or sinus debridement). […] The study consisted of a screening period within 14 days of a diagnostic procedure or surgery; a treatment period on the day of the diagnostic procedure or surgery (Day 1); and a follow-up visit (Day 8).
# Two saturated pledgets were placed into each nasal cavity and up against the septum for 20 minutes. After 20 minutes the pledgets were removed from the subjects.
# To address the potential for the impact of body weight on efficacy and safety, the study conducted the following additional analyses: • Analysis of efficacy (primary endpoint) for 2 subgroups of low weight subjects: <50 kg and <60 kg (see Table 53) • Analysis of safety (AEs) for 2 subgroups of low weight subjects: <50 kg and <60 kg (see Table 54) • Analysis of safety (AEs) for 2 subgroups of subjects based on dose determined on a mg/kg basis (regardless of 4% or 8% dose): ≤3 mg/kg or >3 mg/kg) (Table 55) Note: There is overlap between the body weight groups examined because the <60 kg group has no lower limit of weight.
compound,measurement,setting,value
COC(=O)[C@H]1[C@@H](OC(=O)c2ccccc2)C[C@@H]2CC[C@H]1N2C [Cocaine HCl],Adverse events: Anxiety,>3% mg/kg,2 (0.8) n (%)
same,Adverse events: Dermatitis allergic,>3% mg/kg,1 (0.4) n (%)
same,Adverse events: Dizziness,>3% mg/kg,1 (0.4) n (%)
same,Adverse events: Dysphonia,>3% mg/kg,0 n (%)
same,Adverse events: Epistaxis,>3% mg/kg,2 (0.8) n (%)
same,Adverse events: Eye disorders,>3% mg/kg,1 (0.4) n (%)
same,Adverse events: Facial pain,>3% mg/kg,1 (0.4) n (%)
same,Adverse events: Fatigue,>3% mg/kg,0 n (%)
same,Adverse events: Foreign body sensation in eyes,>3% mg/kg,1 (0.4) n (%)
same,Adverse events: Gastrointestinal disorders,>3% mg/kg,1 (0.4) n (%)
same,Adverse events: General disorders and administration site conditions,>3% mg/kg,1 (0.4) n (%)
same,Adverse events: Headache,>3% mg/kg,4 (1.6) n (%)
same,Adverse events: Hypertension,>3% mg/kg,0 n (%)
same,"Adverse events: Injury, poisoning and procedural complications",>3% mg/kg,1 (0.4) n (%)
same,Adverse events: Lip swelling,>3% mg/kg,1 (0.4) n (%)
same,Adverse events: Masculoskeletal and connective tissue disorders,>3% mg/kg,1 (0.4) n (%)
same,Adverse events: Medication error,>3% mg/kg,1 (0.4) n (%)
same,Adverse events: Nasal congestion,>3% mg/kg,1 (0.4) n (%)
same,Adverse events: Nausea,>3% mg/kg,0 n (%)
same,Adverse events: Neck pain,>3% mg/kg,1 (0.4) n (%)
same,Adverse events: Nervous system disorders,>3% mg/kg,5 (2.0) n (%)
same,Adverse events: Psychiatric disorders,>3% mg/kg,2 (0.8) n (%)
same,"Adverse events: Respiratory, thoracic and mediastinal disorders",>3% mg/kg,3 (1.2) n (%)
same,Adverse events: Rhinorrhea,>3% mg/kg,0 n (%)
same,Adverse events: Skin and subcutaneous tissue disorders,>3% mg/kg,2 (0.8) n (%)
same,Adverse events: Sneezing,>3% mg/kg,0 n (%)
same,Adverse events: Upper-airway cough syndrome,>3% mg/kg,0 n (%)
same,Adverse events: Vascular disorders,>3% mg/kg,0 n (%)
same,Adverse events: Vision blurred,>3% mg/kg,0 n (%)
same,Any AE,>3% mg/kg,14 (5.7) n (%)
same,Adverse events: Cold sweat,">3% mg/kg, under General disorders and administration site conditions",0 n (%)
same,Adverse events: Cold sweat,">3% mg/kg, under Skin and subcutaneous tissue disorders",1 (0.4) n (%)
same,Adverse events: Anxiety,≤3 mg/kg,0 n (%)
same,Adverse events: Dermatitis allergic,≤3 mg/kg,0 n (%)
same,Adverse events: Dizziness,≤3 mg/kg,1 (0.3) n (%)
same,Adverse events: Dysphonia,≤3 mg/kg,1 (0.3) n (%)
same,Adverse events: Epistaxis,≤3 mg/kg,3 (1.0) n (%)
same,Adverse events: Eye disorders,≤3 mg/kg,1 (0.3) n (%)
same,Adverse events: Facial pain,≤3 mg/kg,0 n (%)
same,Adverse events: Fatigue,≤3 mg/kg,1 (0.3) n (%)
same,Adverse events: Foreign body sensation in eyes,≤3 mg/kg,0 n (%)
same,Adverse events: Gastrointestinal disorders,≤3 mg/kg,1 (0.3) n (%)
same,Adverse events: General disorders and administration site conditions,≤3 mg/kg,2 (0.7) n (%)
same,Adverse events: Headache,≤3 mg/kg,7 (2.3) n (%)
same,Adverse events: Hypertension,≤3 mg/kg,1 (0.3) n (%)
same,"Adverse events: Injury, poisoning and procedural complications",≤3 mg/kg,0 n (%)
same,Adverse events: Lip swelling,≤3 mg/kg,0 n (%)
same,Adverse events: Masculoskeletal and connective tissue disorders,≤3 mg/kg,0 n (%)
same,Adverse events: Medication error,≤3 mg/kg,0 n (%)
same,Adverse events: Nasal congestion,≤3 mg/kg,0 n (%)
same,Adverse events: Nausea,≤3 mg/kg,1 (0.3) n (%)
same,Adverse events: Neck pain,≤3 mg/kg,0 n (%)
same,Adverse events: Nervous system disorders,≤3 mg/kg,7 (2.3) n (%)
same,Adverse events: Psychiatric disorders,≤3 mg/kg,0 n (%)
same,"Adverse events: Respiratory, thoracic and mediastinal disorders",≤3 mg/kg,6 (2.0) n (%)
same,Adverse events: Rhinorrhea,≤3 mg/kg,1 (0.3) n (%)
same,Adverse events: Skin and subcutaneous tissue disorders,≤3 mg/kg,0 n (%)
same,Adverse events: Sneezing,≤3 mg/kg,1 (0.3) n (%)
same,Adverse events: Upper-airway cough syndrome,≤3 mg/kg,0 n (%)
same,Adverse events: Vascular disorders,≤3 mg/kg,1 (0.3) n (%)
same,Adverse events: Vision blurred,≤3 mg/kg,1 (0.3) n (%)
same,Any AE,≤3 mg/kg,13 (4.3) n (%)
same,Adverse events: Cold sweat,"≤3 mg/kg, under General disorders and administration site conditions",1 (0.3) n (%)
same,Adverse events: Cold sweat,"≤3 mg/kg, under Skin and subcutaneous tissue disorders",0 n (%)
